Reference: patent publication US4889862A, “Freeze-dried pharmaceutical compositions of phenylquinoline carboxylic acids” (E. I. Du Pont de Nemours and Company, priority 1987, dated 1989)

Tests used:
[1] = system: L1210 leukemia; assay: In vivo antitumor activity against L1210 leukemia in mice (survival time); parameters: species or system CDF1 mice; L1210 murine leukemia; conditions: for Survival Time: % T/C (mean day of death treated/control × 100): intraperitoneal
Method: Then distilled water (4 ml) was added to the above to make 50 mg/kg solution. Serial two-fold dilutions were made in distilled water from the 50 mg/kg solution for the remaining three concentrations. An unformulated control solution was prepared by dissolving the title compound in distilled water and was used while it remained clear.
The test was carried out as follows. On day 0, CDF1 mice were injected with 1×10^5 L1210 murine leukemia cells intraperitoneally. On day 1 formulated and unformulated title compound were injected intraperitoneally and the injections continued, once daily through day 9. Mice were observed until death.

[2] = in vivo
Method: A comparative test was performed on the title compound to evaluate possible lethality differences between compositions described herein and compositions prepared by dissolving in water. […] Following compound administration, mortality was evaluated twice daily for 14 days.

Cc1c(-c2ccc(-c3ccccc3F)cc2)nc2ccc(F)cc2c1C(=O)[O-].[Na+]
Survival Time: % T/C (mean day of death treated/control × 100) ([1]; 6.25 mg/kg/day × 9 days): 156%
Survival Time: % T/C (mean day of death treated/control × 100) ([1]; 12.5 mg/kg/day × 9 days): 167%
Survival Time: % T/C (mean day of death treated/control × 100) ([1]; 25 mg/kg/day × 9 days): 169%
Survival Time: % T/C (mean day of death treated/control × 100) ([1]; 50 mg/kg/day × 9 days): 89%
effect of sodium cholate and glycine on antitumor activity ([1]; formulated vs unformulated): no effect on the antitumor activity
LD50 at 336 h ([2]; mouse, in vivo): 156 mg/kg
Slope of the response curve ([2]; vehicle D.I. H2O, pH = 8.5, single parenteral dose, female mice): 1.18
